The test system of one experiment is rat models of arthritis. Particulars: cited from earlier work.
In experiment [1] the test system is patients with hereditary angioedema (HAE). Particulars: cited from earlier work.
Experiment [2] relates to animal model of ischemic stroke. Particulars: cited from earlier work.
For another experiment, the target named is human plasma kallikrein (Homo sapiens (Human), UniProt P03952). Briefly: Plasma Kallikrein Activity Assay (chromogenic substrate S2302). The experiment is classed as biochemical. The following applies: 2 nM kallikrein, 80 μM S2302, 30° C., pH 7.8; Cheng-Prusoff. In a few lines:
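2 nM human plasma kallikrein incubated at 30° C with 80 μM S2302 and increasing compound concentrations in 50 mM Tris-HCl pH 7.8, 200 mM NaCl, 2.5 mM CaCl2. Activity read as absorbance change at 405 nm; four-parameter logistic fit, Ki by Cheng-Prusoff.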

The next experiment concerns sepsis patients. Particulars: cited from earlier work.
The test system of experiment [3] is mouse model of middle cerebral artery occlusion (MCAO). Particulars: cited from earlier work.

Chain of human plasma kallikrein (P03952 391-638): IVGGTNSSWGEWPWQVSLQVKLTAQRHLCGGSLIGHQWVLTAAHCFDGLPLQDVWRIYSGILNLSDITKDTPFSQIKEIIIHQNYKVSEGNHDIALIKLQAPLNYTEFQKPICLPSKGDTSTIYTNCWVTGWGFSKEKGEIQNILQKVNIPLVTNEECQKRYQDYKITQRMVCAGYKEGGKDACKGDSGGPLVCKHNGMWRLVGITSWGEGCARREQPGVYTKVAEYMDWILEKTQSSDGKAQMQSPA
Chain of human plasma kallikrein (P03952 20-390 partner): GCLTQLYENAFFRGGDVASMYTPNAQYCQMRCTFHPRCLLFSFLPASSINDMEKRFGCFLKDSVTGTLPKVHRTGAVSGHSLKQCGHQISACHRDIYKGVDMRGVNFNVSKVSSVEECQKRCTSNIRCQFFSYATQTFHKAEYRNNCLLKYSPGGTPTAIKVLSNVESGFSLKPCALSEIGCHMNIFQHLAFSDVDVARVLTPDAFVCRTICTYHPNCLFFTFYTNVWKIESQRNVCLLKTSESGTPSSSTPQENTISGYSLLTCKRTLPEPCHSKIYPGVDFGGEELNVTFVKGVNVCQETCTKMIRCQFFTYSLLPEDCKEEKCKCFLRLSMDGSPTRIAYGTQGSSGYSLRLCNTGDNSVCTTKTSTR

As to `Cl.NCC1CCC(C(=O)N[C@@H](Cc2ccccc2)C(=O)Nc2ccc(CC(=O)O)cc2)CC1` (some centres unmarked) [PKSI-527], the joint swelling entry in the experiment with rat models of arthritis is “reduce joint swelling”.
On to `NC(N)=NCCC[C@@H](N)C(=O)N[C@@H](CCCN=C(N)N)C(=O)N1CCC[C@H]1C(=O)N1C[C@H](O)C[C@H]1C(=O)NCC(=O)N[C@@H](Cc1cccs1)C(=O)N[C@@H](CO)C(=O)N1Cc2ccccc2C[C@@H]1C(=O)N1[C@H](C(=O)N[C@@H](CCCN=C(N)N)C(=O)O)C[C@@H]2CCCC[C@@H]21` [Icatibant], for which the “treating HAE” value in experiment [1] is listed as “effective in treating HAE”.
In the case of ecallantide [DX-88], in experiment [1], the “edema in patients with hereditary angioedema (HAE)” value is recorded as “alleviates edema”. Also, in experiment [2], the “brain edema, infarct volume, and neurological deficits” value is “reduced brain edema, infarct volume, and neurological deficits”.
As a reminder, the Ki is the equilibrium dissociation constant of an inhibitor or competing ligand from its target. Low values mean tighter binding, high ones weaker binding. In the case of `N#Cc1cccc(C(N)(CCC2CC2)c2ccc(F)c(NC(=O)[C@H]3C[C@H](N)CN3C(=O)Nc3ccc(Cl)cc3)c2)c1` (stereo partly drawn) [Compound 33d, (2R,4S)-4-amino-N2-(5-((+)-1-amino-1-(3-cyanophenyl)-3-cyclopropylpropyl)-2-fluorophenyl)-N1-(4-chlorophenyl)pyrrolidine-1,2-dicarboxamide], at human plasma kallikrein, the inhibition constant (Ki) is over 100 nM.
Regarding `N#Cc1cccc(C(N)(CCC2CC2)c2ccc(F)c(NC(=O)[C@@H]3C[C@H](O)CN3C(=O)Nc3ccc(Cl)cc3)c2)c1` (stereo partly drawn) [Compound 10c, (2S,4S)-N2-(5-((−)-1-amino-1-(3-cyanophenyl)-3-cyclopropylpropyl)-2-fluorophenyl)-N1-(4-chlorophenyl)-4-hydroxypyrrolidine-1,2-dicarboxamide], the Ki on human plasma kallikrein was over 100 nM.
For the molecule `CCO[C@@H]1C[C@H](C(=O)Nc2cc(C(NCC3CC3)c3cccc(C#N)c3)ccc2F)N(C(=O)Nc2ccc(Cl)cn2)C1` (stereo partly drawn) [Compound 58j, (2R,4R)-N1-(5-chloropyridin-2-yl)-N2-(5-((+)-(3-cyanophenyl)(cyclopropylmethylamino)methyl)-2-fluorophenyl)-4-ethoxypyrrolidine-1,2-dicarboxamide], the Ki on human plasma kallikrein was under 50 nM.
In turn, `CC(C)(C)[S@@+]([O-])NC(CCC1CC1)(c1cccc(C#N)c1)c1ccc(F)c(NC(=O)[C@H]2CCCN2C(=O)Nc2ccc(Cl)cc2)c1` (stereo partly drawn) [Compound 7b, (R)-N1-(4-chlorophenyl)-N2-(5-((+)-1-(3-cyanophenyl)-3-cyclopropyl-1-((R)-1,1-dimethylethylsulfinamido)propyl)-2-fluorophenyl)pyrrolidine-1,2-dicarboxamide] came in with a Ki on human plasma kallikrein of over 100 nM.
`CO[C@@H]1C[C@H](C(=O)Nc2cc(C(N)(CCC3CC3)c3ccncc3)ccc2F)N(C(=O)Nc2ccc(Cl)s2)C1` (stereo partly drawn) [Compound 81h, (2R,4R)-N2-(5-((−)-1-amino-3-cyclopropyl-1-(pyridin-4-yl)propyl)-2-fluorophenyl)-N1-(5-chlorothiophen-2-yl)-4-methoxypyrrolidine-1,2-dicarboxamide]: the inhibition constant Ki at human plasma kallikrein was under 50 nM.
As to `NC(CCC1CC1)(c1ccncc1)c1ccc(F)c(NC(=O)[C@H]2C[C@](O)(c3ccccc3)CN2C(=O)Nc2ccc(Cl)cc2)c1` (stereo partly drawn) [Compound 40a, (2R,4S)-N2-(5-((+)-1-amino-3-cyclopropyl-1-(pyridin-4-yl)propyl)-2-fluorophenyl)-N1-(4-chlorophenyl)-4-hydroxy-4-phenylpyrrolidine-1,2-dicarboxamide], the Ki at human plasma kallikrein is under 50 nM.
In the case of `CO[C@@H]1C[C@H](C(=O)Nc2cc(C(N)(CCC3CC3)c3cccc(C#N)c3)ccc2F)N(C(=O)N(C)c2ccc(Cl)cc2)C1` (stereo partly drawn) [Compound 6e, (2R,4R)-N2-(5-((−)-1-amino-1-(3-cyanophenyl)-3-cyclopropylpropyl)-2-fluorophenyl)-N1-(4-chlorophenyl)-4-methoxy-N1-methylpyrrolidine-1,2-dicarboxamide], the inhibition constant (Ki) on human plasma kallikrein is over 100 nM.
Same read-out and setting: as for `N#Cc1cccc(C(N)(CCC2CC2)c2ccc(F)c(NC(=O)[C@H]3CC(=O)CN3C(=O)Nc3ccc(Cl)cc3)c2)c1` (stereo partly drawn) [Compound 20b, (R)-N2-(5-(1-amino-1-(3-cyanophenyl)-3-cyclopropylpropyl)-2-fluorophenyl)-N1-(4-chlorophenyl)-4-oxopyrrolidine-1,2-dicarboxamide], the figure is over 100 nM.
As to `CO[C@@H]1C[C@@H](C(=O)Nc2cc(C(N)(CCC3CC3)c3cccc(C#N)c3)ccc2F)N(C(=O)N(C)c2ccc(Cl)cc2)C1` (stereo partly drawn) [Compound 6f, (2S,4R)-N2-(5-((+)-1-amino-1-(3-cyanophenyl)-3-cyclopropylpropyl)-2-fluorophenyl)-N1-(4-chlorophenyl)-4-methoxy-N1-methylpyrrolidine-1,2-dicarboxamide], the Ki on human plasma kallikrein was over 100 nM.
`CCNC(CCC1CC1)(c1ccnc(C)c1)c1ccc(F)c(NC(=O)[C@H]2C[C@@H](OC)CN2C(=O)Nc2ccc(Cl)cn2)c1` (stereo partly drawn) [Compound 78a, (2R,4R)-N1-(5-chloropyridin-2-yl)-N2-(5-((+)-3-cyclopropyl-1-(ethylamino)-1-(2-methylpyridin-4-yl)propyl)-2-fluorophenyl)-4-methoxypyrrolidine-1,2-dicarboxamide]: on human plasma kallikrein, the inhibition constant Ki is under 50 nM.
Same read-out and setting: to `N#Cc1cccc(C(N)(CCC2CC2)c2ccc(F)c(NC(=O)[C@H]3C[C@@H](N)CN3C(=O)Nc3ccc(Cl)cc3)c2)c1` (stereo partly drawn) [Compound 19c, (2R,4R)-4-amino-N2-(5-((+)-1-amino-1-(3-cyanophenyl)-3-cyclopropylpropyl)-2-fluorophenyl)-N1-(4-chlorophenyl)pyrrolidine-1,2-dicarboxamide] belongs over 100 nM.

B1: C1-inhibitor: a physiological inhibitor (C1-inhibitor) (protein, UniProt P05155 23-500, looked up)
Plasma protease C1 inhibitor: NPNATSSSSQDPESLQDRGEGKVATTVISKMLFVEPILEVSSLPTTNSTTNSATKITANTTDEPTTQPTTEPTTQPTIQPTQPTTQLPTDSPTQPTTGSFCPGPVTLCSDLESHSTEAVLGDALVDFSLKLYHAFSAMKKVETNMAFSPFSIASLLTQVLLGAGENTKTNLESILSYPKDFTCVHQALKGFTTKGVTSVSQIFHSPDLAIRDTFVNASRTLYSSSPRVLSNNSDANLELINTWVAKNTNNKISRLLDSLPSDTRLVLLNAIYLSAKWKTTFDPKKTRMEPFHFKNSVIKVPMMNSKKYPVAHFIDQTLKAKVGQLQLSHNLSLVILVPQNLKHRLEDMEQALSPSVFKAIMEKLEMSKFQPTLLTLPRIKVTTSQDMLSIMEKLEFFDFSYDLNLCGLTEDPDLQVSAMQHQTVLELTETGVEAAAASAISVARTLLVFEVQQPFLFVLWDQQHKFPVFMGRVYDPRA
For B1, the “clinical outcome in sepsis patients” value in the experiment with sepsis patients is given as “Clinical improvement was observed”. For the same molecule, the infarct size result in experiment [3] is on record as “reduced infarct size”.

Values taken from patent US10562850B2, “Human plasma kallikrein inhibitors” (priority 2015, dated 2020).
